Numbering of substitutions follows the chain as printed. Where a SMILES comes first, the peptide text is derived from it.
Columns and labels:
[1] = target: T1, hTAS1R2 + hTAS1R3 V779A^6.52 (Homo sapiens, UniProt Q7RTX0+Q8TE23, V779A); test: Calcium response (FLIPR), hTAS1R3 mutant coexpressed with hTAS1R2; format: cell-based; conditions: variant V779A^6.52; for Emax: read-out: maximal signal (% of wt)
T1 construct: expressed in transfected cells; host or cells: HEK293T cells stably expressing G16Gust44
T1 sequence (Q8TE23 20-839): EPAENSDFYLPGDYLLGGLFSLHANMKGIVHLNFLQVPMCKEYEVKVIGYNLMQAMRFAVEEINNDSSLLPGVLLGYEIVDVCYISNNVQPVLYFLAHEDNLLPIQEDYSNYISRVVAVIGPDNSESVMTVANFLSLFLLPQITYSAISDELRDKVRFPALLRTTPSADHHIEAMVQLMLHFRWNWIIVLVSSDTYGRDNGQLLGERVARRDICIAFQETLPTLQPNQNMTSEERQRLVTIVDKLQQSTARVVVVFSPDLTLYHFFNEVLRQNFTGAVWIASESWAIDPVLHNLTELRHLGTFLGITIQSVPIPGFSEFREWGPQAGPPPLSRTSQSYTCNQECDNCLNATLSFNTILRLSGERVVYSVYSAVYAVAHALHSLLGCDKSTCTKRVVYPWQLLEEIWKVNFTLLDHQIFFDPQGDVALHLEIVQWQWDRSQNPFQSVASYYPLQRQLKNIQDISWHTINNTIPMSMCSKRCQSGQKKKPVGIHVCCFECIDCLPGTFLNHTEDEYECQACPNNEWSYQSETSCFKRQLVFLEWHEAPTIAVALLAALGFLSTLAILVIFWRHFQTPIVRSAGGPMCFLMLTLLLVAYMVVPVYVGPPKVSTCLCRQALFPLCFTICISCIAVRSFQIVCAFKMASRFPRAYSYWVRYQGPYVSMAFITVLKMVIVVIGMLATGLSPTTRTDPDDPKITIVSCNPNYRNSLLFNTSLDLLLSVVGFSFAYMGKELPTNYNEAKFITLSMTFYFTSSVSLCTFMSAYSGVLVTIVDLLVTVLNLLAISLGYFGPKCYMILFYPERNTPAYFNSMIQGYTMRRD
T1 sequence (Q7RTX0 21-852 V779A): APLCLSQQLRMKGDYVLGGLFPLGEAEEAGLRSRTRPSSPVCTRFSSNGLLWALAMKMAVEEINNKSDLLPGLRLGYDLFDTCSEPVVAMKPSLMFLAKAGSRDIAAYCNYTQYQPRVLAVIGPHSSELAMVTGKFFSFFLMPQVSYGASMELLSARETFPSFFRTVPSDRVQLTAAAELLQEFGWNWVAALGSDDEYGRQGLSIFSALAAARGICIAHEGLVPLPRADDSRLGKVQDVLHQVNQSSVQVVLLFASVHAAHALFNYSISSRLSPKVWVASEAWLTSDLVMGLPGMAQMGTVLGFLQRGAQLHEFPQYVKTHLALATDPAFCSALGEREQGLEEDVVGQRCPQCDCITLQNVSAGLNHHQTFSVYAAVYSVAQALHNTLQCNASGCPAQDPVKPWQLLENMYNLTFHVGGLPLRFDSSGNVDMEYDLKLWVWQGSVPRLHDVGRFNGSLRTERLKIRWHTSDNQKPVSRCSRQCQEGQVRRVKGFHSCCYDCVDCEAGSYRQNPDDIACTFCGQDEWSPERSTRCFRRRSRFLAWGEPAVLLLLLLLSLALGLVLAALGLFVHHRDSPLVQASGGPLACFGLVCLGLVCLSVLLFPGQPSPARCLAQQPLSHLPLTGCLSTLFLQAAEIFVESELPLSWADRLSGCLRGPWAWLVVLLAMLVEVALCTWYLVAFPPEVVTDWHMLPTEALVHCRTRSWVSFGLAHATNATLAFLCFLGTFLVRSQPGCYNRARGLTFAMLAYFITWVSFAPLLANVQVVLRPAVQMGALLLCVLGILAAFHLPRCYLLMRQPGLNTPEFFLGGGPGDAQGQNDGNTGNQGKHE
In short: (§1)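 HEK293T cells stably expressing chimeric G16Gust44 were transiently transfected with C-terminally HSV-tagged hTAS1R2 and mutant hTAS1R3, then loaded 24 h later with Fluo4-AM for 1 h. Calcium mobilization after sweet-tastant application was read by FLIPR, mock-corrected and expressed as ΔF/F.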

[2] = target: T2, hTAS1R2 + hTAS1R3 Q636A^3.28 (Homo sapiens, UniProt Q7RTX0+Q8TE23, Q636A); test: as above; format: cell-based; conditions: variant Q636A^3.28; for Emax: read-out: maximal signal (% of wt)
T2 construct: expressed in transfected cells; host or cells: HEK293T cells stably expressing G16Gust44
T2 sequence (Q8TE23 20-839): T1 sequence (Q8TE23 20-839)
T2 sequence (Q7RTX0 21-852 Q636A): T1 sequence (Q7RTX0 21-852 V779A) with Q616A, A759V
In short: as §1

| EC50 [1] [µM] | Emax [1] [%] | EC50 [2] [µM] | Emax [2] [%] | Structure (SMILES) |
| --- | --- | --- | --- | --- |
| 200 ± 100 | 88 ± 14 | 300 ± 200 | 61 ± 29 | COc1ccc(CCC(=O)c2c(O)cc(O[C@@H]3O[C@H](CO)[C@@H](O)[C@H](O)[C@H]3O[C@@H]3O[C@@H](C)[C@H](O)[C@@H](O)[C@H]3O)cc2O)cc1O [NHDC, neohesperidin dihydrochalcone] |
| 1200 ± 300 | 52 ± 10 | 1100 ± 100 | 70 ± 18 | COC(=O)[C@H](Cc1ccccc1)NC(=O)[C@@H](N)CC(=O)O [aspartame] (HELM PEPTIDE1{D.F.[CO[*:1]]}$$$$V2.0) |

Source: article PMC2099433, “The binding site for neohesperidin dihydrochalcone at the human sweet taste receptor” (BMC Structural Biology, 2007)
